According to ChEMBL document CHEMBL1156251, “Structure--activity relationships of polymyxin antibiotics” (J Med Chem, 2010):
Converted amounts (≈) assume the structure as drawn.

Key:
Escherichia coli [1] = test: Antimicrobial activity against Escherichia coli K-12; assay type: functional
Escherichia coli [2] = test: Antimicrobial activity against Escherichia coli assessed as relative sensitizing activity; assay type: functional
Lipopolysaccharide (LPS) [3] = test: Displacement of dansyl-PMB from LPS by isothermal titration calorimetry; details: read-out: IC50
Pseudomonas aeruginosa = test: Antimicrobial activity against Pseudomonas aeruginosa; assay type: functional, organism-based
Escherichia coli [4] = test: Antimicrobial activity against Escherichia coli; assay type: functional
Lipopolysaccharide (LPS) [5] = test: Displacement of dansyl-PMB from LPS by fluorometric assay

Row | SMILES | MIC (Escherichia coli [1]) | IC50 (Lipopolysaccharide (LPS) [3]) | MIC (Pseudomonas aeruginosa) | MIC (Escherichia coli [4]) | dansyl-PMB displacement concentration (Lipopolysaccharide (LPS) [5]) | Activity (Escherichia coli [2])
1 | CCCCCCCCCC(=O)N[C@H](C(=O)N[C@@H](CCN)C(=O)N[C@H]1CCNC(=O)[C@H]([C@@H](C)O)NC(=O)[C@H](CCN)NC(=O)[C@H](CCN)NC(=O)[C@H](CC(C)C)NC(=O)[C@@H](CC(C)C)NC(=O)[C@H](CCN)NC1=O)[C@@H](C)O | 3 µg/mL (≈ 2.77 µM) | – | – | – | – | –
2 | CCC(C)CCCCCCC(=O)N[C@H](C(=O)N[C@@H](CCN)C(=O)N[C@H]1CCNC(=O)[C@H]([C@@H](C)O)NC(=O)[C@H](CCN)NC(=O)[C@H](CCN)NC(=O)[C@H](CC(C)C)NC(=O)[C@@H](CC(C)C)NC(=O)[C@H](CCN)NC1=O)[C@@H](C)O (stereo partly specified) | 25 µg/mL (≈ 22.8 µM) | – | – | – | – | –
3 | CC(C)C[C@@H]1NC(=O)[C@@H](Cc2ccccc2)NC(=O)[C@H](CCCCN)NC(=O)CN(C(=O)[C@H](CCCCN)NC(=O)[C@@H](N)[C@@H](C)O)CCCCNC(=O)[C@@H]([C@H](C)O)NC(=O)[C@H](CCCCN)NC(=O)[C@H](CCCCN)NC1=O | – | 35 µM | – | – | – | 4%
4 | CC(C)C[C@@H]1NC(=O)[C@@H](Cc2ccccc2)NC(=O)[C@H](CCCN)NC(=O)CN(C(=O)[C@H](CCCN)NC(=O)[C@@H](N)[C@@H](C)O)CCCNC(=O)[C@@H]([C@H](C)O)NC(=O)[C@H](CCCN)NC(=O)[C@H](CCCN)NC1=O | – | 25 µM | – | – | – | 2%
5 | CC(C)C[C@@H]1NC(=O)[C@@H](Cc2ccccc2)NC(=O)[C@H](CCN)NC(=O)[C@@H](NC(=O)[C@H](CCN)NC(=O)[C@@H](N)[C@@H](C)O)CCNC(=O)[C@H]([C@@H](C)O)NC(=O)[C@H](CCCCN)NC(=O)[C@H](CCCCN)NC1=O | – | 12 µM | – | – | – | 40%
6 | CC(C)C[C@@H]1NC(=O)[C@@H](Cc2ccccc2)NC(=O)[C@H](CC(=N)N)NC(=O)[C@@H](NC(=O)[C@H](CC(=N)N)NC(=O)[C@@H](N)[C@@H](C)O)CCNC(=O)[C@H]([C@@H](C)O)NC(=O)[C@H](CC(=N)N)NC(=O)[C@H](CC(=N)N)NC1=O | – | 3.8 µM | – | – | – | 25%
7 | CC(C)C[C@@H]1NC(=O)[C@@H](Cc2ccccc2)NC(=O)[C@H](CCN)NC(=O)[C@H](CCN)NC(=O)[C@H](NC(=O)[C@@H](N)[C@@H](C)O)CCNC(=O)[C@H]([C@@H](C)O)NC(=O)[C@H](CCN)NC(=O)[C@H](CCN)NC1=O | – | 8 µM | – | – | – | 7%
8 | CCC(C)CCCCC(=O)N[C@@H](CCNC(=O)C(N)CCCNC(=N)N)C(=O)N[C@H](C(=O)N[C@@H](CCN)C(=O)N[C@H]1CCNC(=O)[C@H]([C@@H](C)O)NC(=O)[C@H](CCN)NC(=O)[C@H](CCN)NC(=O)[C@H](CC(C)C)NC(=O)[C@@H](Cc2ccccc2)NC(=O)[C@H](CCN)NC1=O)[C@@H](C)O (stereo partly specified) | – | – | 0.207 µg/mL (≈ 0.152 µM) | 0.453 µg/mL (≈ 0.333 µM) | 4.48 µg/mL | –
9 | CC(C)C[C@@H]1NC(=O)[C@@H](Cc2ccccc2)NC(=O)[C@H](CCN)NC(=O)[C@@H](NC(=O)[C@H](CCN)NC(=O)[C@@H](N)[C@@H](C)O)CCNC(=O)[C@H]([C@@H](C)O)NC(=O)[C@H](CCN)NC(=O)[C@H](CCN)NC1=O (stereo in doubt; 202) [POLYMYXIN B NONAPEPTIDE] | – | 8 µM | – | – | – | 5%

Second part, led by results:

Row | MIC (Escherichia coli [1]) | IC50 (Lipopolysaccharide (LPS) [3]) | MIC (Pseudomonas aeruginosa) | MIC (Escherichia coli [4]) | dansyl-PMB displacement concentration (Lipopolysaccharide (LPS) [5]) | SMILES | Activity (Escherichia coli [2])
10 | – | 30 µM | – | – | – | CC(C)C[C@@H]1NC(=O)[C@@H](Cc2ccccc2)NC(=O)[C@H](CCCCN)NC(=O)[C@@H](NC(=O)[C@H](CCCCN)NC(=O)[C@@H](N)[C@@H](C)O)CCNC(=O)[C@H]([C@@H](C)O)NC(=O)[C@H](CCCCN)NC(=O)[C@H](CCCCN)NC1=O | 5%
11 | – | 15 µM | – | – | – | CC(C)C[C@@H]1NC(=O)[C@@H](Cc2ccccc2)NC(=O)[C@H](CCCCN)NC(=O)[C@@H](NC(=O)[C@H](CCCCN)NC(=O)[C@@H](N)[C@@H](C)O)CCNC(=O)[C@H]([C@@H](C)O)NC(=O)[C@H](CCN)NC(=O)[C@H](CCN)NC1=O | 4%
12 | – | 30 µM | – | – | – | CC(C)C[C@@H]1NC(=O)[C@@H](Cc2ccccc2)NC(=O)[C@H](CN)NC(=O)[C@@H](NC(=O)[C@H](CN)NC(=O)[C@@H](N)[C@@H](C)O)CNC(=O)[C@H]([C@@H](C)O)NC(=O)[C@H](CN)NC(=O)[C@H](CN)NC1=O | 11%
13 | – | 14 µM | – | – | – | CC(C)C[C@@H]1NC(=O)[C@@H](Cc2ccccc2)NC(=O)[C@H](CCCCN)NC(=O)[C@@H](NC(=O)[C@H](CCCCN)NC(=O)[C@@H](N)[C@@H](C)O)CCNC(=O)[C@@H]([C@H](C)O)NC(=O)[C@H](CCN)NC(=O)[C@H](CCN)NC1=O | 9%
14 | – | – | 0.146 µg/mL (≈ 0.119 µM) | 0.112 µg/mL (≈ 0.0909 µM) | 2.3 µg/mL | CCNCC[C@H](NC(=O)CCCCC(C)CC)C(=O)N[C@H](C(=O)N[C@@H](CCN)C(=O)N[C@H]1CCNC(=O)[C@H]([C@@H](C)O)NC(=O)[C@H](CCN)NC(=O)[C@H](CCN)NC(=O)[C@H](CC(C)C)NC(=O)[C@@H](Cc2ccccc2)NC(=O)[C@H](CCN)NC1=O)[C@@H](C)O (stereo partly specified) | –
15 | – | – | 0.175 µg/mL (≈ 0.119 µM) | 0.206 µg/mL (≈ 0.141 µM) | 1.12 µg/mL | CCC(C)CCCCC(=O)N[C@@H](CCNC(=O)C(N)CCCCNC(=O)OCc1ccccc1)C(=O)N[C@H](C(=O)N[C@@H](CCN)C(=O)N[C@H]1CCNC(=O)[C@H]([C@@H](C)O)NC(=O)[C@H](CCN)NC(=O)[C@H](CCN)NC(=O)[C@H](CC(C)C)NC(=O)[C@@H](Cc2ccccc2)NC(=O)[C@H](CCN)NC1=O)[C@@H](C)O (stereo partly specified) | –
16 | – | – | 0.206 µg/mL (≈ 0.165 µM) | 0.208 µg/mL (≈ 0.167 µM) | 2.4 µg/mL | CCCNCC[C@H](NC(=O)CCCCC(C)CC)C(=O)N[C@H](C(=O)N[C@@H](CCN)C(=O)N[C@H]1CCNC(=O)[C@H]([C@@H](C)O)NC(=O)[C@H](CCN)NC(=O)[C@H](CCN)NC(=O)[C@H](CC(C)C)NC(=O)[C@@H](Cc2ccccc2)NC(=O)[C@H](CCN)NC1=O)[C@@H](C)O (stereo partly specified) | –
17 | – | – | 2.8 µg/mL (≈ 2.25 µM) | 1.3 µg/mL (≈ 1.04 µM) | 2.8 µg/mL | CCC(C)CCCCC(=O)N[C@@H](CCNC(C)=O)C(=O)N[C@H](C(=O)N[C@@H](CCN)C(=O)N[C@H]1CCNC(=O)[C@H]([C@@H](C)O)NC(=O)[C@H](CCN)NC(=O)[C@H](CCN)NC(=O)[C@H](CC(C)C)NC(=O)[C@@H](Cc2ccccc2)NC(=O)[C@H](CCN)NC1=O)[C@@H](C)O (stereo partly specified) | –
18 | – | – | 0.413 µg/mL (≈ 0.335 µM) | 0.492 µg/mL (≈ 0.399 µM) | 9.5 µg/mL | CCNCC[C@@H]1NC(=O)[C@H](CCN)NC(=O)[C@H](CC(C)C)NC(=O)[C@@H](Cc2ccccc2)NC(=O)[C@H](CCN)NC(=O)[C@@H](NC(=O)[C@H](CCN)NC(=O)[C@@H](NC(=O)[C@H](CCN)NC(=O)CCCCC(C)CC)[C@@H](C)O)CCNC(=O)[C@H]([C@@H](C)O)NC1=O (stereo partly specified) | –
19 | – | – | 0.033 µg/mL (≈ 0.0262 µM) | 0.028 µg/mL (≈ 0.0222 µM) | 8 µg/mL | CCC(C)CCCCC(=O)N[C@@H](CCNC(=O)CN)C(=O)N[C@H](C(=O)N[C@@H](CCN)C(=O)N[C@H]1CCNC(=O)[C@H]([C@@H](C)O)NC(=O)[C@H](CCN)NC(=O)[C@H](CCN)NC(=O)[C@H](CC(C)C)NC(=O)[C@@H](Cc2ccccc2)NC(=O)[C@H](CCN)NC1=O)[C@@H](C)O (stereo partly specified) | –
20 | – | – | 0.763 µg/mL (≈ 0.613 µM) | 0.995 µg/mL (≈ 0.799 µM) | 9.5 µg/mL | CCCNCC[C@@H]1NC(=O)[C@H](CCN)NC(=O)[C@H](CC(C)C)NC(=O)[C@@H](Cc2ccccc2)NC(=O)[C@H](CCN)NC(=O)[C@@H](NC(=O)[C@H](CCN)NC(=O)[C@@H](NC(=O)[C@H](CCN)NC(=O)CCCCC(C)CC)[C@@H](C)O)CCNC(=O)[C@H]([C@@H](C)O)NC1=O (stereo partly specified) | –
